The values below come from patent US20240150321A1, “PYRAZOLYLSULFONAMIDE COMPOUNDS AND THEIR USE IN THERAPY” (HOTSPOT THERAPEUTICS, INC., priority 2022, published 2024).

Assay [1] deals with NF-kB reporter in Jurkat cells. Nature of the assay: NF-kB reporter assay in Jurkat cells stimulated with aCD3/aCD28/PMA. It counts as cell-based. The note with it: read-out: NF-kB Reporter Assay IC50. The essentials: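 Jurkat cells (25,000/well, serum-free RPMI) were pre-incubated 1 h at 37° C with serially diluted compound, then stimulated 4 h with aCD3/aCD28/PMA at final […]. NF-kB reporter activity was read by One-Glo luminescence; IC50 values reported.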

In another assay the target is Avi-tagged FL MALT-1 (Homo sapiens (Human), UniProt Q9UDY8). The experiment in a line: MALT-1 Fluorogenic Peptide Cleavage Assay (MALT1 inhibition assay). Particulars: Ac-LRSR-AMC peptide substrate, 30 min pre-incubation, 90 min reaction at room temperature. The class given is biochemical. The essentials:
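Full-length Avi-tagged human MALT-1 (40 nM working stock) pre-incubated 30 min at RT with compound in 25 mM HEPES pH 6.89, 660 mM sodium citrate, 1 mM TCEP, […], 0.05% CHAPS, 2% DMSO. Ac-LRSR-AMC added at Km (50 μM working stock) or 10×Km (280 μM working stock); 90 min at RT, AMC fluorescence (ex 342/em 441 nm), IC50 from % inhibition curves.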

The mark [2] stands for this setting: Homo sapiens, Jurkat cells, 1 hr compound pre-incubation, aCD3/aCD28/PMA stimulation 4 hr, One-Glo readout.
Setting [3] is: Jurkat cells, 1 hr compound pre-incubation, aCD3/aCD28/PMA stimulation 4 hr, One-Glo readout.

Where two headings read alike, the source gives them in different places. Some results are limits rather than exact numbers.

Chain of Avi-tagged FL MALT-1 (Q9UDY8 whole entry): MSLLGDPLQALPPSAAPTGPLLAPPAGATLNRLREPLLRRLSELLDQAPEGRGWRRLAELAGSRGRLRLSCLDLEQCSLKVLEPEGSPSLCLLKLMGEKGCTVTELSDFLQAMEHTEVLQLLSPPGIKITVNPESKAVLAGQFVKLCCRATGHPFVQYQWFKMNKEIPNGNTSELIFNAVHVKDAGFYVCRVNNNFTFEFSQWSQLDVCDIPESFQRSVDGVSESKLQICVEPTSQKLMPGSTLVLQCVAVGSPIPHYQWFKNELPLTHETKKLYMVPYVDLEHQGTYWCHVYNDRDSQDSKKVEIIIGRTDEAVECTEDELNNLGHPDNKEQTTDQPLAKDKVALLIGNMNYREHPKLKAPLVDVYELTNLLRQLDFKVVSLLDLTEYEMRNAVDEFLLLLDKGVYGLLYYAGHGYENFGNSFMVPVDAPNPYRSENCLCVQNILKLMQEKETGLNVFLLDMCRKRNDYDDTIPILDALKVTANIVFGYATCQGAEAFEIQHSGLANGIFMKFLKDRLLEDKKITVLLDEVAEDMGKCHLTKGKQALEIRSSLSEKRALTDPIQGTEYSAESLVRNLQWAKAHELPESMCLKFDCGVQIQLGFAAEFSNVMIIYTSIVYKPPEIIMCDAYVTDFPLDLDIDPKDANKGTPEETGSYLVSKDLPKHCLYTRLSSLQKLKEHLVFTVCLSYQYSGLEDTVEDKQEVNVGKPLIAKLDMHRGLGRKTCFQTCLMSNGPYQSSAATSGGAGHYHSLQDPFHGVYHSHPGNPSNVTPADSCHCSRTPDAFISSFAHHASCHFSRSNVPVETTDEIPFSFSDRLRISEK

With `COc1ccc2cnn(C)c2c1NS(=O)(=O)c1cnn(-c2cc(C3(C#N)CCCC3)ccn2)c1` [Compound I-449, 1-(4-(1-cyanocyclopentyl)pyridin-2-yl)-N-(6-methoxy-1-methyl-1H-indazol-7-yl)-1H-pyrazole-4-sulfonamide], the results for the IC50 (in assay [1] (setting [2]); at Avi-tagged FL MALT-1) were below 400 nM and 1000 to 2500 nM, respectively.

With `Cn1cc2ccc(F)c(NS(=O)(=O)c3cnn(-c4cc(C(F)(F)F)ccn4)c3)c2n1` [Compound I-104, N-(6-fluoro-2-methyl-2H-indazol-7-yl)-1-(4-(trifluoromethyl)pyridin-2-yl)-1H-pyrazole-4-sulfonamide], the 50% inhibitory concentration (IC50) (in assay [1] (setting [2]); against Avi-tagged FL MALT-1) was above 2500 nM each time.

With `C=Cn1cc2cccc(NS(=O)(=O)c3cnn(-c4cc(C(F)(F)F)ccn4)c3)c2n1` [Compound I-357, 1-(4-(trifluoromethyl)pyridin-2-yl)-N-(2-vinyl-2H-indazol-7-yl)-1H-pyrazole-4-sulfonamide], the IC50 (in assay [1] (setting [2]); at Avi-tagged FL MALT-1) was above 2500 nM each time.

As to `CCc1ccc2cn(C)nc2c1NS(=O)(=O)c1cnn(-c2ccnc(C(F)(F)F)c2)c1` [Compound I-48, N-(6-Ethyl-2-Methyl-2H-Indazol-7-yl)-1-(2-(Trifluoromethyl) Pyridin-4-yl)-1H-Pyrazole-4-Sulfonamide], the half-inhibitory concentration (IC50) is above 2500 nM in assay [1] (setting [2]) and at most 400 nM on Avi-tagged FL MALT-1.

For the molecule `COc1ncc2cnn(C)c2c1NS(=O)(=O)c1cnn(-c2cc(C(C)OC)ccn2)c1` (single isomer, unassigned) [Compound I-273, N-{6-methoxy-1-methylpyrazolo[4,3-c]pyridin-7-yl}-1-{4-[1-methoxyethyl]pyridin-2-yl}pyrazole-4-sulfonamide], the figures for the IC50 (in assay [1] (setting [3]); at Avi-tagged FL MALT-1) were below 400 nM and at most 400 nM, respectively.

For the molecule `CC1CC(F)(c2ccnc(-n3cc(S(=O)(=O)Nc4cccc5cnn(C)c45)cn3)c2)C1` (stereo not shown) [Compound I-395, 1-(4-(1-fluoro-3-methylcyclobutyl)pyridin-2-yl)-N-(1-methyl-1H-indazol-7-yl)-1H-pyrazole-4-sulfonamide], the IC50 was below 400 nM in assay [1] (setting [3]) and above 2500 nM on Avi-tagged FL MALT-1.

Consider `Cn1nc(Cl)c2cccc(NS(=O)(=O)c3cnn(-c4cc(C(F)(F)F)ccn4)c3)c21` [Compound I-111, N-(3-chloro-1-methyl-1H-indazol-7-yl)-1-(4-(trifluoromethyl)pyridin-2-yl)-1H-pyrazole-4-sulfonamide], for which the IC50 was below 400 nM in assay [1] (setting [2]) and above 2500 nM on Avi-tagged FL MALT-1.

Consider `Cn1ncc2cccc(NS(=O)(=O)c3cnn(-c4ccccn4)c3)c21` [Compound I-145, N-(1-methyl-1H-indazol-7-yl)-1-(pyridin-2-yl)-1H-pyrazole-4-sulfonamide], for which the IC50 in assay [1] (Homo sapiens, Jurkat) was below 400 nM; against Avi-tagged FL MALT-1, above 2500 nM.

As for `COc1ccc2cnn(C)c2c1NS(=O)(=O)c1cnn(-c2cc(N3CCC(F)(F)C3)ccn2)c1` [Compound I-435, 1-(4-(3,3-difluoropyrrolidin-1-yl)pyridin-2-yl)-N-(6-methoxy-1-methyl-1H-indazol-7-yl)-1H-pyrazole-4-sulfonamide], the values for the IC50 (in assay [1] (setting [2]); on Avi-tagged FL MALT-1) were below 400 nM and above 2500 nM, respectively.

`COc1ccc2cnn(C)c2c1NS(=O)(=O)c1cnn(-c2cc(C3CCO3)ccn2)c1` (stereo not shown) [Compound I-263, N-(6-methoxy-1-methyl-1H-indazol-7-yl)-1-(4-(oxetan-2-yl)pyridin-2-yl)-1H-pyrazole-4-sulfonamide]: the IC50 in assay [1] (setting [2]) was below 400 nM; at Avi-tagged FL MALT-1, 400 to 1000 nM.

With `CCN(c1c(OC)ccc2cnn(C)c12)S(=O)(=O)c1cnn(-c2ccnc(C(F)(F)F)c2)c1` [Compound I-26, N-(6-Methoxy-1-Methyl-1H-Indazol-7-yl)-N-Ethyl-1-(2-(Trifluoromethyl)Pyridin-4-yl)-1H-Pyrazole-4-Sulfonamide], the IC50 was below 400 nM in assay [1] (setting [2]) and at most 400 nM against Avi-tagged FL MALT-1.

As to `Cc1n[nH]c2cccc(NS(=O)(=O)c3cnn(-c4cc(C(F)(F)F)ccn4)c3)c12` [Compound I-73, N-(3-Methyl-1H-Indazol-4-yl)-1-(4-(Trifluoromethyl)Pyridin-2-yl)-1H-Pyrazole-4-Sulfonamide], the IC50 was below 400 nM in assay [1] (setting [2]) and 1000 to 2500 nM on Avi-tagged FL MALT-1.

On to `C[C@H]1CCN(c2ccnc(-n3cc(S(=O)(=O)Nc4cccc5cnn(C)c45)cn3)c2)C1` [Compound I-400, N-(1-methylindazol-7-yl)-1-{4-[(3S)-3-methylpyrrolidin-1-yl]pyridin-2-yl} pyrazole-4-sulfonamide], for which the IC50 is below 400 nM in assay [1] (setting [2]) and above 2500 nM at Avi-tagged FL MALT-1.

Turning to `Cc1cnc(-n2cc(S(=O)(=O)Nc3cccc4cnn(C)c34)cn2)cc1C(F)(F)F` [Compound I-117, N-(1-methyl-1H-indazol-7-yl)-1-(5-methyl-4-(trifluoromethyl)pyridin-2-yl)-1H-pyrazole-4-sulfonamide], the IC50 is below 400 nM in assay [1] (setting [2]) and 1000 to 2500 nM against Avi-tagged FL MALT-1.

As for `COc1ccc2cnn(C)c2c1NS(=O)(=O)c1cnn(-c2cc(N3CC(F)(F)C3)ccn2)c1` [Compound I-443, 1-[4-(3,3-difluoroazetidin-1-yl)pyridin-2-yl]-N-(6-methoxy-1-methylindazol-7-yl)pyrazole-4-sulfonamide], the values for the IC50 (in assay [1] (setting [2]); against Avi-tagged FL MALT-1) were below 400 nM and 1000 to 2500 nM, respectively.

As to `CCC(F)(F)c1ccnc(-n2cc(S(=O)(=O)Nc3cccc4cnn(C)c34)cn2)c1` [Compound I-140, 1-(4-(1,1-difluoropropyl)pyridin-2-yl)-N-(1-methyl-1H-indazol-7-yl)-1H-pyrazole-4-sulfonamide], the concentration for half-maximal inhibition (IC50) in assay [1] (Homo sapiens, Jurkat) was below 400 nM; on Avi-tagged FL MALT-1, above 2500 nM.

Consider `COC1(c2ccnc(-n3cc(S(=O)(=O)Nc4cccc5cnn(C)c45)cn3)c2)CC(C)C1` (stereo not shown) [Compound I-362, 1-(4-(1-methoxy-3-methylcyclobutyl)pyridin-2-yl)-N-(1-methyl-1H-indazol-7-yl)-1H-pyrazole-4-sulfonamide], for which the IC50 in assay [1] (setting [2]) is below 400 nM; on Avi-tagged FL MALT-1, above 2500 nM.

`COc1ccc2cnn(C)c2c1NS(=O)(=O)c1cnn(-c2cc(N3CC(C)C3)ccn2)c1` [Compound I-369]: the IC50 in assay [1] (setting [2]) is below 400 nM; at Avi-tagged FL MALT-1, above 2500 nM.

Regarding `COC[C@@](C)(OC)c1ccnc(-n2cc(S(=O)(=O)Nc3cccc4cnn(C)c34)cn2)c1` [Compound I-301], the IC50 in assay [1] (setting [2]) was below 400 nM; against Avi-tagged FL MALT-1, above 2500 nM.

For the molecule `CO[C@]1(c2ccnc(-n3cc(S(=O)(=O)Nc4cccc5cnn(C)c45)cn3)c2)CCOC1` [Compound I-306], the IC50 was below 400 nM in assay [1] (setting [2]) and above 2500 nM at Avi-tagged FL MALT-1.

Turning to `Cn1ncc2cccc(NS(=O)(=O)c3cnn(-c4cc(N5CC(C)(C#N)C5)ccn4)c3)c21` [Compound I-450, 1-(4-(3-cyano-3-methylazetidin-1-yl)pyridin-2-yl)-N-(1-methyl-1H-indazol-7-yl)-1H-pyrazole-4-sulfonamide], the results for the IC50 (in assay [1] (setting [2]); at Avi-tagged FL MALT-1) were below 400 nM and above 2500 nM, respectively.

Consider `Cn1ncc2cccc(NS(=O)(=O)c3cnn(-c4cc(N5CC6(CC6)C5)ccn4)c3)c21` [Compound I-368, 1-(4-{5-azaspiro[2.3]hexan-5-yl}pyridin-2-yl)-N-(1-methylindazol-7-yl)pyrazole-4-sulfonamide], for which the IC50 in assay [1] (setting [2]) is below 400 nM; on Avi-tagged FL MALT-1 it was above 2500 nM.

Regarding `[2H]C([2H])([2H])n1nc(F)c2cccc(NS(=O)(=O)c3cnn(-c4cc(C(F)(F)F)ccn4)c3)c21` [Compound I-100], the IC50 in assay [1] (setting [2]) was below 400 nM; on Avi-tagged FL MALT-1, above 2500 nM.
